Assay results published in patent US11851449B2, “Heterocyclic amide compounds having an RORvt inhibitory action” (TAKEDA PHARMACEUTICAL COMPANY LIMITED, priority 2013, dated 2023).
Where two headings read alike, the source gives them in different places.

Key:
IL-17A gene expression = assay: Effect on IL-23-induced IL-17A gene expression in mice; format: in vivo; settings: Balb/c mice, ear tissue 24 hr after intradermal IL-23; 100 mg/kg orally 30 min before and 8 hr after IL-23; versus the negative control group
Description: Effect on IL-23-Induced IL-17A Gene Expression in Mice
A mouse IL-23 solution (500 ng/10 μL, prepared by Takeda Pharmaceutical Company Limited) or PBS (10 μL, negative control group) was administered intradermally in the ear of Balb/c mice (Charles River Japan, male, 7 weeks old). Twenty-four hr after administration, the ear was resected under isoflurane anesthesia. The test compound was suspended in 0.5% methylcellulose and administered orally 30 min before and 8 hr after IL-23 administration.
RNA extraction from the ear tissue and quantitative PCR were performed as follows. Specifically, ear tissue 5 mm in diameter was punched from an area of the resected ear centering on the IL-23 injection site, and the tissue was immersed in RNAlater (QIAGEN) for at least 18 hr. The RNAlater-treated ear tissue was homogenized in 350 μL of RLT buffer (RNeasy mini kit, QIAGEN) and treated (55° C., 10 min) with Proteinase K (QIAGEN). Total RNA was then extracted according to the RNeasy mini kit protocol. The RNA thus obtained was then reverse transcribed into cDNA using the High-Capacity RNA-to-cDNA kit (Applied Biosystems), and the amount of each cytokine expressions was measured by real-time PCR (Viia7™, Applied Biosystems). The PCR buffer used was TaqMan Fast Advanced Master Mix (Applied Biosystems), and TaqMan Gene Expression Assays (Applied Biosystems) Mm00439618 m1 (IL-17A) and 4352341E (β-actin) were used for cytokine gene detection. The IL-17A gene expression level was normalized to the β-actin gene expression level, and the percent inhibition of IL-17A gene expression with the test compound was then calculated.
The results obtained with the above-described method (percent inhibition of IL-17A gene expression with oral administration of the test compound) are shown in Table 3.

RORγt [1] = biological target: T1, RORγt (Homo sapiens, UniProt P51449); assay: Jurkat reporter test (human IL-17 ROR response element luciferase reporter); format: cell-based; settings: read-out: luminescence level inhibitory rate (%) at test compound 3 μM
T1 sequence (P51449 1-497 isoform P51449-2): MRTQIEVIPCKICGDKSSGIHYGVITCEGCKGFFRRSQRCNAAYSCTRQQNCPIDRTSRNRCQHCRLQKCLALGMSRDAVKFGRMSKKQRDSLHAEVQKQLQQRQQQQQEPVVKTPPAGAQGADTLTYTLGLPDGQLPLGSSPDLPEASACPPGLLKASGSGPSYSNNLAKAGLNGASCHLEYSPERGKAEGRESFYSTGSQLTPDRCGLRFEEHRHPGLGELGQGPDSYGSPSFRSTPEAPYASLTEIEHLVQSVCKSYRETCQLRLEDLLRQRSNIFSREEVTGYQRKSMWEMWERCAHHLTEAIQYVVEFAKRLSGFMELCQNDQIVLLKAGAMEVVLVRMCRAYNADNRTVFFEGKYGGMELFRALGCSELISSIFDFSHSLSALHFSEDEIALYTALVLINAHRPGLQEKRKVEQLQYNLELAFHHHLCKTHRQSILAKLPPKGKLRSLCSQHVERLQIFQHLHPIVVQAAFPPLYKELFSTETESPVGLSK
Summary of the method: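 Jurkat cells were electroporated (1350 V, 10 ms, 3 pulses) with reporter constructs, then cultured overnight with compound in RPMI containing 10% lipid-reduced FCS, 10 mM HEPES pH 7.5 and 5 μM lovastatin. Luciferase was quantified by Bright-Glo luminescence after 10 min at room temperature.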

[2] = tested on: mouse model of IL-23-induced psoriasis; assay: Effect in a mouse model of IL-23-induced psoriasis; format: in vivo; settings: Balb/c mice, 100 mg/kg orally twice daily, versus the negative control group
Description: Effect in a Mouse Model of IL-23-Induced Psoriasis
Mouse IL-23 (500 ng/15 μL, R&D) or PBS (15 μL, negative control group) was administered intradermally in the ear of Balb/c mice (Charles River Japan, male, 7 weeks old) 5 times every other days. Seven hr after IL-23 administration at 8 days after the initial administration (final administration), the mice were anesthetized with isoflurane, and ear thickness was measured with calipers. After the ear thickness was measured, the ear was resected, the tissue 8 mm in diameter was punched from an area centering on the IL-23 injection site, and the tissue was weighed. […]
The change in ear thickness in this model was evaluated by calculating the difference in measured thickness between before IL-23 administration and 7 hr after the final IL-23 administration.
The amount of IL-17 in the ear tissue was performed as follows. […] The homogenized solution was centrifuged, and the amount of IL-17 in the supernatant was measured using ELISA kit (R&D), and the amount of protein in the supernatant was measured using pierce BCA protein assay kit (Thermo scientific). The amount of IL-17 in each ear tissue was normalized to the amount of protein, and the percent inhibition of IL-17A production with the test compound was then calculated. […]

RORγt [3] = biological target: T1, RORγt; assay: Cofactor recruitment test (Alpha Screen, biotinylated SRC-1 peptide); format: biochemical; settings: read-out: signal value inhibitory rate (%) at test compound 1 μM
Description: Cofactor Recruitment Test
Cofactor recruitment test was performed by Alpha Screen (Histidine Detection Kit, PerkinElmer) method. First, a test compound was diluted with an assay buffer (50 mM Tris-HCl (pH 7.5), 50 mM KCl, 1 mM DTT, 0.1% BSA) and added to a 384 well plate by 5 μL. […] The mixture was stood in a dark place for 1 hr, and the signal value was measured by Envision (PerkinElmer).

RORγt [4] = biological target: T1, RORγt; assay: RORγt binding test (TR-FRET, fluorescent-labeled cholesterol); settings: read-out: binding inhibitory rate (%) of fluorescent-labeled cholesterol to RORγt at test compound 1 μM
Summary of the method: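 His-tagged RORγt and BODIPY-cholesterol were incubated with compound for 20 min at room temperature in Tris-HCl pH 7.5, 100 mM NaCl, 1 mM DTT and 0.1% BSA. Terbium anti-His antibody was then added for a further 20 min.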

SMILES | percent inhibition of IL-17A gene expression (IL-17A gene expression) [%] | inhibition at 3 µM (RORγt [1]; Jurkat) [%] | percent inhibition of ear thickness ([2]; IL-23 intradermally in the ear 5 times every other day) [%] | percent inhibition of IL-17 production ([2]; ear tissue, ELISA normalized to protein) [%] | inhibition at 1 µM (RORγt [3]) [%] | inhibition at 1 µM (RORγt [4]) [%] | inhibition at 3 µM (RORγt [1]; test compound 3 μM, Jurkat cells) [%]
COc1ccc([C@H](C(=O)Nc2ccc([Si](C)(C)C)cc2)N(C)C(=O)c2cc(O)no2)cc1 [Example 14, 3-hydroxy-N-((1R)-1-(4-methoxyphenyl)-2-oxo-2-((4-(trimethylsilyl)phenyl)amino)ethyl)-N-methyl-1,2-oxazole-5-carboxamide] | 53 |  |  |  |  |  | 
COc1ccc([C@H](C(=O)Nc2cc(F)c([Si](C)(C)C)c(F)c2)N(C)C(=O)c2cc(O)no2)cc1 [Example 23, N-((1R)-2-((3,5-difluoro-4-(trimethylsilyl)phenyl)amino)-1-(4-methoxyphenyl)-2-oxoethyl)-3-hydroxy-N-methyl-1,2-oxazole-5-carboxamide] | 71 |  |  |  |  |  | 
COc1ccc([C@H](C(=O)Nc2ccc([Si](C)(C)C)c(F)c2)N(C)C(=O)c2cc(O)no2)cc1 [Example 24, N-((1R)-2-((3-fluoro-4-(trimethylsilyl)phenyl)amino)-1-(4-methoxyphenyl)-2-oxoethyl)-3-hydroxy-N-methyl-1,2-oxazole-5-carboxamide] | 65 | 100 | 76 | 96 | 95.3 | 102 | 
COCc1ccc([C@@H](NC(=O)Cc2cc(O)no2)C(=O)Nc2ccc(C(C)(C)C)c(F)c2)cc1 [Example 106, (2R)—N-(4-tert-butyl-3-fluorophenyl)-2-(((3-hydroxy-1,2-oxazol-5-yl)acetyl)amino)-2-(4-(methoxymethyl)phenyl)acetamide] | 43 |  |  |  | 88 | 103 | 99.8
